Measured values taken from article PMC12881681 (Molecular Pharmacology, 2025).
Where “and” joins values, the source holds several entries; their conditions need not be identical. Identical values can stand only once. Like-named read-outs stand apart in the source and are kept apart here.

Legend:
[1] = target: T1, human liver cytosolic AOX1 (Homo sapiens, UniProt Q06278); assay: Enzyme inactivation of human liver cytosolic AOX1-mediated carbazeran 4-oxidation; details: for kinact: human liver cytosol 100 μg, carbazeran 15 μM, 37 °C; for Experimental Log KI: log of KI
T1 sequence (Q06278 1-1338): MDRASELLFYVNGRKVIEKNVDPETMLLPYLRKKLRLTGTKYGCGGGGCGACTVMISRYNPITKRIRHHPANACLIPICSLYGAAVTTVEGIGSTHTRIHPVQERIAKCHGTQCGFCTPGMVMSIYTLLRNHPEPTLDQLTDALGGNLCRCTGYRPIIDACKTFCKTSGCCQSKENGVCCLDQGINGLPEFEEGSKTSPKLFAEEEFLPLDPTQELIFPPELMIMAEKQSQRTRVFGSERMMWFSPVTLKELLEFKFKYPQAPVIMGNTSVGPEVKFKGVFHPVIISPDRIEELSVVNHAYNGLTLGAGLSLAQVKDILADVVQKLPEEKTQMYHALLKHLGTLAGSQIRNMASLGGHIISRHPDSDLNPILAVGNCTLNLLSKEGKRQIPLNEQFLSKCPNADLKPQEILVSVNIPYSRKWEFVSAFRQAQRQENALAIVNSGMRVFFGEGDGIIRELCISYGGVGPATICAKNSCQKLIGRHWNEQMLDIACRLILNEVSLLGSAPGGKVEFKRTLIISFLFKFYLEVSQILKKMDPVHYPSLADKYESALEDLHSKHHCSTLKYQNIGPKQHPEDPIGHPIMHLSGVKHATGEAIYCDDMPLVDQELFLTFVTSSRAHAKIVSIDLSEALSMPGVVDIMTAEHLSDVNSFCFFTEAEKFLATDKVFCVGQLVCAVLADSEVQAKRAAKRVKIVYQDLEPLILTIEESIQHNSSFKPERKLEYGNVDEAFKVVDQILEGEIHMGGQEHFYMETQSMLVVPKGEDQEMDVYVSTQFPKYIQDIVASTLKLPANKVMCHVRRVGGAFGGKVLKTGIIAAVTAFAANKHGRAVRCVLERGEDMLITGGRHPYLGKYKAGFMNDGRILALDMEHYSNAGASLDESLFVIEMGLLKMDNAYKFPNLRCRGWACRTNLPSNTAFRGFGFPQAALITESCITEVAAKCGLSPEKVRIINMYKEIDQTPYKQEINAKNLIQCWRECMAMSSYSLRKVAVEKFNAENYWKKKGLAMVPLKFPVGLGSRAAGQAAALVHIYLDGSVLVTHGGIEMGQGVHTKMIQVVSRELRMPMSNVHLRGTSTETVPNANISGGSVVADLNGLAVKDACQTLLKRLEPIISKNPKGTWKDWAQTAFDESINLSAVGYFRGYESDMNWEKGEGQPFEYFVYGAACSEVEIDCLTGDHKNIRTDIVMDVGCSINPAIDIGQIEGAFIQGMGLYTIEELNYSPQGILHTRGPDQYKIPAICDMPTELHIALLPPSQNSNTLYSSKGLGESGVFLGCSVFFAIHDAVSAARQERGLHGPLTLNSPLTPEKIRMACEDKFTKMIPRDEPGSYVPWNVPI
Description: Carbazeran 4-oxidation and O^6-benzylguanine 8-oxidation were deployed as AOX1-selective catalytic markers.[27] The assay conditions (amount of cytosolic protein, incubation time, and substrate concentration) for carbazeran 4-oxidation catalyzed by human recombinant AOX1 and human/rat/mouse liver cytosols were optimized previously.[7]^,[25]
Enzymatic reaction was initiated by adding human liver cytosol (100 μg). After the specified preincubation duration, an aliquot (10 μL) of the preincubation mixture was transferred to 190 μL of a prewarmed (for 3 minutes at 37 °C) secondary incubation mixture (total volume of 200 μL) containing potassium phosphate buffer and carbazeran (15 μM) or O^6-benzylguanine (150 μM), which yielded a 20-fold dilution of the primary incubation mixture. The secondary incubation mixture was incubated for 5 minutes at 37 °C before the enzymatic reaction was terminated with 200 μL of ice-cold acetonitrile containing carbazeran-d4 (2.5 nM final concentration; internal standard for 4-oxo-carbazeran) or tolbutamide (25 nM final concentration; internal standard for 8-oxo-O^6-benzylguanine). Each sample was immediately mixed by vortex, placed on ice, centrifuged at 16,000g for 15 minutes at 4 °C and stored at –30 °C until ultra-high performance liquid chromatography–tandem mass spectrometry (UPLC-MS/MS) analysis. For enzyme inactivation assays involving rat and mouse liver cytosol and recombinant AOX1 assays, the experimental conditions were similar to those of human liver cytosol, except that the amount of cytosolic protein was 200 μg (rat) and 150 μg (mouse), respectively, and the incubation time of the secondary incubation mixture was 60 minutes. For the recombinant AOX1 enzyme assay, the amount of enzyme was 100 μg, the incubation time of the secondary incubation mixture was 15 minutes, and the total volume of the primary and secondary incubation mixtures was reduced to 100 μL.
Preliminary experiments were performed to optimize the incubation time and concentration of an inactivator to ensure a log-linear decrease in enzyme activity over time and that the kobs versus inactivator concentration plot reaches a plateau for the determination of the kinact value. The observed first-order rate constant for inactivation (kobs), maximal inactivation rate constant (kinact), half-maximal inactivation concentration (KI), and the time required for half of the enzyme molecules to be inactivated (t1/2) were calculated as described in our previous publication.[28]

[2] = target: T1, human liver cytosolic AOX1; assay: Partition ratio determination (titration, human liver cytosol); type: biochemical; set-up: Enzymatic reaction was initiated by adding human liver cytosol (100 μg); tissue Corning, Inc. (Gentest brand) 452115; host or cells: human liver cytosol, pool of 150 donors; details: for partition ratio, fold greater than erlotinib / turnover number and partition ratio, fold greater than erlotinib: Table 1 values; for Turnover Number: human liver cytosol; for Partition Ratio: turnover number minus 1
Description: The enzyme kinetic experiments were conducted as described above. The incubation was allowed to proceed until saturation of enzyme has been reached (6 or 18 minutes, as specified in each figure legend). Carbazeran 4-oxidation was plotted against the ratio of inactivator concentration to AOX1 protein concentration in the incubation mixture of 200 μL. The specific lot of human liver cytosol (#38292) used in this study contained 1.05 ± 0.01 pmol/μL (mean ± SD) of AOX1 protein, as assessed by capillary nanoproteomic immunoassay.[27] The turnover number was the extrapolation of the intercept of the 2 linear regression lines to the x-axis, which was determined by solving the 2 linear regression equations. The partition ratio was calculated by subtracting the turnover number by 1, assuming 1:1 stoichiometry between the inactivator and the enzyme.[29]

[3] = half-maximal inactivation concentration, human liver cytosol, carbazeran 4-oxidation
[4] = human liver cytosol, carbazeran 4-oxidation
[5] = read-out: KI,u, unbound, KI,u = fu × KI, fu at 10 μM in human liver cytosol
[6] = human liver cytosol, 10 μM (raloxifene 0.02 μM), 30-minute preincubation
[7] = human liver cytosol, inactivator 1.5 μM alone, 6-minute preincubation

## C#Cc1cccc(Nc2nc(C)nc3cc(OCCOC)c(OCCOC)cc23)c1 [2-Methylerlotinib, 2-methylerlotinib]
[1]; Table 1 values
  KI, fold higher compared with erlotinib: 1.5 fold
  kinact, decrease compared with erlotinib: 26%
  kinact/KI ratio, decrease compared with erlotinib: 51%
  t1/2, fold longer compared with erlotinib: 1.3 fold
[1]; [3]
  Ki: 4 ± 0.27 µM
[1]
  kinact: 0.84 ± 0.10∗∗ min^–1
[1]; [4]
  Inactivation t1/2: 0.83 ± 0.11 min
  kinact/KI: 0.21 ± 0.01∗∗∗ min^–1μM^–1
[1]; [5]
  Ki: 2.04 ± 0.14 µM
[2]
  partition ratio, fold greater than erlotinib: 1.9 fold
  Turnover Number: 49.9 ± 1.40
  Partition Ratio: 48.9 ± 1.40

## C=Cc1cccc(Nc2ncnc3cc(OCCOC)c(OCCOC)cc23)c1 [3-Vinylerlotinib, 3-vinylerlotinib]
[1]; Table 1 values
  KI, fold higher compared with erlotinib: ~11 fold
  kinact, fold lower compared with erlotinib: approximately 3.5 fold
  kinact/KI ratio, fold lower compared with erlotinib: ~43 fold
  t1/2, fold longer compared with erlotinib: approximately 3.5 fold
[1]; [3]
  Ki: 30.6 ± 9.6 µM
[1]
  kinact: 0.33 ± 0.07∗∗∗ min^–1
[1]; [6]
  decrease in carbazeran 4-oxidation: 84%
[1]; human liver cytosol, 6 minutes of preincubation (data not shown)
  decrease in carbazeran 4-oxidation: did not decrease
[1]; [4]
  Inactivation t1/2: 2.14 ± 0.47∗ min
[1]; human liver cytosol
  Experimental Log KI: 1.5 ± 0.15∗∗∗ μM
[1]; [5]
  Ki: 23.9 ± 7.53 µM
[2]
  partition ratio, fold greater than erlotinib: 10 fold
  turnover number and partition ratio, fold greater than erlotinib: 10 fold
  Turnover Number: 271 ± 23.5∗∗∗
  Partition Ratio: 270 ± 23.5∗∗∗
[2]; listed as 3-vinylerlotinib
  Turnover Number: 271
  Partition Ratio: 270

## C#Cc1cc(Nc2ncnc3cc(OCCOC)c(OCCOC)cc23)ccc1C [4′-Methylerlotinib, 4′-methylerlotinib]
[1]; Table 1 values
  KI, decrease compared with erlotinib: 62%
  kinact, decrease compared with erlotinib: 88%
  kinact/KI ratio, decrease compared with erlotinib: 70%
  t1/2, fold longer compared with erlotinib: 8.5 fold
[1]; [3]
  Ki: 1.03 ± 0.27 µM
[1]
  kinact: 0.14 ± 0.03∗∗∗ min^–1
[1]; [4]
  Inactivation t1/2: 5.29 ± 1.19∗∗∗ min
  kinact/KI: 0.13 ± 0.02∗∗∗ min^–1μM^–1
[1]; [5]
  Ki: 0.75 ± 0.2 µM
[2]
  turnover number and partition ratio, fold greater than erlotinib: 1.6 fold
  Turnover Number: 42.9 ± 4.32
  Partition Ratio: 41.9 ± 4.32

## C#Cc1cccc(Nc2ncnc3cc(OCCOC)c(OCCOC)cc23)c1 [Erlotinib]
[1]; [4]
  Inactivation t1/2: 0.62 ± 0.09 min
[2]
  Turnover Number: 26.9 ± 1.30

## C#Cc1cccc(Nc2ncnc3cc(OCCOC)c(OCCO)cc23)c1 [O-Desmethylerlotinib, O-desmethylerlotinib]
[1]
  kinact: 1.05 ± 0.06 min^–1
[1]; [6]
  decrease in carbazeran 4-oxidation: 99%
[1]; [4]
  Inactivation t1/2: 0.66 ± 0.04 min
  kinact/KI: 0.21 ± 0.04∗∗∗ min^–1μM^–1
[1]; [7]
  decrease in carbazeran 4-oxidation: 69% and 79% and 80%
[1]; human liver cytosol
  Experimental Log KI: 0.71 ± 0.11∗ μM
[1]; [5]
  Ki: 4.41 ± 1.04 µM
[1]; read-out: KI, half-maximal inactivation concentration, human liver cytosol, carbazeran 4-oxidation
  KI (inactivation): 5.23 ± 1.24 µM
[2]
  Turnover Number: 35.2 ± 4.78
  Partition Ratio: 34.2 ± 4.78

## C#Cc1cccc(Nc2ncnc3cc(OCCO)c(OCCO)cc23)c1 [O-Didesmethylerlotinib, O-didesmethylerlotinib]
[1]; [3]
  Ki: 1.98 ± 0.2 µM
[1]
  kinact: 1.00 ± 0.04 min^–1
[1]; [6]
  decrease in carbazeran 4-oxidation: 99%
[1]; [4]
  Inactivation t1/2: 0.70 ± 0.03 min
  kinact/KI: 0.50 ± 0.03∗∗ min^–1μM^–1
[1]; [7]
  decrease in carbazeran 4-oxidation: 90% and 89% and 92%
[1]; human liver cytosol
  Experimental Log KI: 0.30 ± 0.04 μM
[1]; [5]
  Ki: 1.67 ± 0.17 µM
[2]
  Turnover Number: 24.6 ± 1.29
  Partition Ratio: 23.6 ± 1.29
